Assay results: the supplement of paper PMC6045584
± gives the standard deviation of the averaged measurements.

Experiments:
[1] = compound: CC(=O)NCC(=O)N1[C@@H]2CC[C@H]1c1ccc(Nc3ncc(C(F)(F)F)c(NC4CCC4)n3)cc12; assay: surviving fraction relative to DMSO-only wells; higher = less growth inhibition; details: exposure time: 5 days
Summary of the method: (§1)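 Viability values are CellTiter-Glo luminescence readings, given as surviving fraction against the median of DMSO-only wells. The readings were taken after 10 minutes at room temperature, following five days of continuous exposure to inhibitors at 0.5, 1, 5, 10, 50, 100, 500 and 1000 nM that began 24 hours after log-phase tumour cell lines were seeded at 250–500 cells per well in 384-well plates. Every line was screened three times and kept only if replicate Pearson r >0.7 and median Z' >0.3.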

PACLITAXEL [2] = compound: T1, CC(=O)O[C@H]1C(=O)[C@@]2(C)[C@H]([C@H](OC(=O)c3ccccc3)[C@]3(O)C[C@H](OC(=O)[C@H](O)[C@@H](NC(=O)c4ccccc4)c4ccccc4)C(C)=C1C3(C)C)[C@]1(OC(C)=O)CO[C@@H]1C[C@@H]2O [PACLITAXEL]; assay: as above; details: exposure time: 5 days
Summary of the method: as §1

[3] = compound: CC(=O)c1c(C)c2cnc(Nc3ccc(N4CCNCC4)cn3)nc2n(C2CCCC2)c1=O; assay: as above; details: exposure time: 5 days
Summary of the method: as §1

CAMPTOTHECIN = compound: CC[C@@]1(O)C(=O)OCc2c1cc1n(c2=O)Cc2cc3ccccc3nc2-1 [CAMPTOTHECIN]; assay: as above; details: exposure time: 5 days
Summary of the method: as §1

YM155 = compound: COCC[n+]1c2c(n(Cc3cnccn3)c1C)C(=O)c1ccccc1C2=O [YM155]; assay: as above; details: exposure time: 5 days
Summary of the method: as §1

GEFITINIB = compound: COc1cc2ncnc(Nc3ccc(F)c(Cl)c3)c2cc1OCCCN1CCOCC1 [GEFITINIB]; assay: as above; details: exposure time: 5 days
Summary of the method: as §1

OSI-906 = compound: C[C@]1(O)C[C@@H](c2nc(-c3ccc4ccc(-c5ccccc5)nc4c3)c3c(N)nccn32)C1 [OSI-906]; assay: as above; details: exposure time: 5 days
Summary of the method: as §1

CELECOXIB = compound: Cc1ccc(-c2cc(C(F)(F)F)nn2-c2ccc(S(N)(=O)=O)cc2)cc1 [CELECOXIB]; assay: as above; details: exposure time: 5 days
Summary of the method: as §1

CARBOPLATIN = compound: O=C(O)C1(C(=O)O)CCC1.[NH2-].[NH2-].[Pt+2] [CARBOPLATIN]; assay: as above; details: exposure time: 5 days
Summary of the method: as §1

[4] = compound: CC(=O)NCC(=O)N1[C@@H]2CC[C@H]1c1ccc(Nc3ncc(C(F)(F)F)c(NC4CCC4)n3)cc12; assay: area under dose-response curve of surviving fraction (unscaled, Aref=0) (surviving fraction x log10(nM)); higher = more resistant; details: exposure time: 5 days; dose range 0.5-1000 nM
Summary of the method: (§2)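 Tumour cell lines in 384-well plates were exposed for five days to eight inhibitor concentrations from 0.5 to 1000 nM. Viability was read by CellTiter-Glo luminescence, normalised to DMSO-only wells, in three screens per line. Dose-response survival curves were fitted to surviving fractions by 3-parameter logistic regression in the drc R package. Area under the curve is the unscaled activity area (Aref = 0) over log10 dose.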

PACLITAXEL [5] = compound: T1, PACLITAXEL; assay: as above; details: exposure time: 5 days; dose range 0.5-1000 nM
Summary of the method: as §2

[6] = compound: CC(=O)c1c(C)c2cnc(Nc3ccc(N4CCNCC4)cn3)nc2n(C2CCCC2)c1=O; assay: as above; details: exposure time: 5 days; dose range 0.5-1000 nM
Summary of the method: as §2

SG28 HEADNECK
surviving fraction ([1]; 0.5 nM): 1.06 ± 0.12
surviving fraction ([1]; 1 nM): 1.03 ± 0.036
surviving fraction ([1]; 5 nM): 0.972 ± 0.15
surviving fraction ([1]; 10 nM): 0.991 ± 0.13
surviving fraction ([1]; 50 nM): 0.949 ± 0.11
surviving fraction ([1]; 100 nM): 0.828 ± 0.015
surviving fraction ([1]; 500 nM): 0.682 ± 0.048
surviving fraction ([1]; 1000 nM): 0.601 ± 0.075
surviving fraction (PACLITAXEL [2]; 0.5 nM): 1.05 ± 0.086
surviving fraction (PACLITAXEL [2]; 1 nM): 0.903 ± 0.13
surviving fraction (PACLITAXEL [2]; 5 nM): 0.645 ± 0.033
surviving fraction (PACLITAXEL [2]; 10 nM): 0.635 ± 0.051
surviving fraction (PACLITAXEL [2]; 50 nM): 0.463 ± 0.072
surviving fraction (PACLITAXEL [2]; 100 nM): 0.505 ± 0.0085
surviving fraction (PACLITAXEL [2]; 500 nM): 0.458 ± 0.02
surviving fraction (PACLITAXEL [2]; 1000 nM): 0.487 ± 0.043
surviving fraction ([3]; 0.5 nM): 1.1 ± 0.069
surviving fraction ([3]; 1 nM): 1.1 ± 0.13
surviving fraction ([3]; 5 nM): 1.08 ± 0.15
surviving fraction ([3]; 10 nM): 0.955 ± 0.05
surviving fraction ([3]; 50 nM): 1.02 ± 0.16
surviving fraction ([3]; 100 nM): 1.02 ± 0.13
surviving fraction ([3]; 500 nM): 1 ± 0.058
surviving fraction ([3]; 1000 nM): 1.07 ± 0.051
surviving fraction (CAMPTOTHECIN; 0.5 nM): 0.21 ± 0.068
surviving fraction (CAMPTOTHECIN; 1 nM): 0.771 ± 0.12
surviving fraction (CAMPTOTHECIN; 5 nM): 0.579 ± 0.056
surviving fraction (CAMPTOTHECIN; 10 nM): 0.696 ± 0.099
surviving fraction (CAMPTOTHECIN; 50 nM): 0.337 ± 0.015
surviving fraction (CAMPTOTHECIN; 100 nM): 0.55 ± 0.044
surviving fraction (CAMPTOTHECIN; 500 nM): 0.211 ± 0.04
surviving fraction (CAMPTOTHECIN; 1000 nM): 0.102 ± 0.0035
surviving fraction (YM155; 0.5 nM): 1.07 ± 0.083
surviving fraction (YM155; 1 nM): 1.17 ± 0.066
surviving fraction (YM155; 5 nM): 0.882 ± 0.025
surviving fraction (YM155; 10 nM): 0.631 ± 0.05
surviving fraction (YM155; 50 nM): 0.105 ± 0.005
surviving fraction (YM155; 100 nM): 0.058 ± 0.013
surviving fraction (YM155; 500 nM): 0.0285 ± 0.00071
surviving fraction (YM155; 1000 nM): 0.033 ± 0.0014
surviving fraction (GEFITINIB; 0.5 nM): 1.14 ± 0.071
surviving fraction (GEFITINIB; 1 nM): 1.2 ± 0.037
surviving fraction (GEFITINIB; 5 nM): 1.06 ± 0.075
surviving fraction (GEFITINIB; 10 nM): 1.03 ± 0.035
surviving fraction (GEFITINIB; 50 nM): 0.758 ± 0.069
surviving fraction (GEFITINIB; 100 nM): 0.679 ± 0.033
surviving fraction (GEFITINIB; 500 nM): 0.501 ± 0.059
surviving fraction (GEFITINIB; 1000 nM): 0.504 ± 0.016
surviving fraction (OSI-906; 0.5 nM): 0.829 ± 0.16
surviving fraction (OSI-906; 1 nM): 0.78 ± 0.098
surviving fraction (OSI-906; 5 nM): 0.769 ± 0.16
surviving fraction (OSI-906; 10 nM): 0.792 ± 0.02
surviving fraction (OSI-906; 50 nM): 0.88 ± 0.06
surviving fraction (OSI-906; 100 nM): 0.867 ± 0.089
surviving fraction (OSI-906; 500 nM): 0.692 ± 0.021
surviving fraction (OSI-906; 1000 nM): 0.547 ± 0.034
surviving fraction (CELECOXIB; 0.5 nM): 1.19 ± 0.26
surviving fraction (CELECOXIB; 1 nM): 1.19 ± 0.04
surviving fraction (CELECOXIB; 5 nM): 1.24 ± 0.099
surviving fraction (CELECOXIB; 10 nM): 1.2 ± 0.13
surviving fraction (CELECOXIB; 50 nM): 1.2 ± 0.18
surviving fraction (CELECOXIB; 100 nM): 1.233 ± 0.0057
surviving fraction (CELECOXIB; 500 nM): 1.16 ± 0.027
surviving fraction (CELECOXIB; 1000 nM): 1.29 ± 0.059
surviving fraction (CARBOPLATIN; 0.5 nM): 1.23 ± 0.042
surviving fraction (CARBOPLATIN; 1 nM): 1.1
surviving fraction (CARBOPLATIN; 5 nM): 1.07 ± 0.065
surviving fraction (CARBOPLATIN; 10 nM): 0.97 ± 0.0014
surviving fraction (CARBOPLATIN; 50 nM): 1.024 ± 0.0035
surviving fraction (CARBOPLATIN; 100 nM): 1 ± 0.084
surviving fraction (CARBOPLATIN; 500 nM): 1.11 ± 0.034
surviving fraction (CARBOPLATIN; 1000 nM): 1.18 ± 0.19
area under dose-response curve [4]: 2.96
area under dose-response curve (PACLITAXEL [5]): 2.04
area under dose-response curve [6]: 3.43
